Results published in patent US6958334B2, “Inhibitors of Akt activity” (Merck & Co., Inc., priority 2001, dated 2005).

Test system: PKC (mix of isoforms)
Assay: PKC assay (counter screen)
Assay type: biochemical
Settings: myelin basic protein substrate; read-out: Counter screens IC50 (μM) PKC
Experimental: Each PKC assay consists of the following components:
Final assay concentrations were as follows: 0.25 mM EGTA, 0.4 mM CaCl, 20 mM Tris pH 7.5, 10 mM MgCl, 1 mM 2-mercaptoethanol, 0.32 mg/ml phosphatidylserine, 0.032 mg/ml diacylglycerol, 10 μM ^33P-ATP, 70 μg/ml MBP, 10 ng/ml PKC, 0.1 mg/ml BSA.
Assays are performed using 96 deep well assay plates. In each assay well 10 μl of solvent control or appropriate inhibitor dilution with 5 μl ^33P-ATP (components #5 and #3) were premixed. In a separate tube, a mixture containing equal volumes of components #1, #2, #4, and #6 was prepared. The assay reaction was initiated, by adding 35 μl of the components #1, #2, #4, and #6 mixture to wells containing ^33P-ATP and inhibitor. The liquid in the assay wells was thoroughly mixed and the assay reactions incubated for 20 minutes at room temperature. The reactions were stopped by adding 100 mM EDTA (50 μl) and 100 mM sodium pyrophosphate (50 μl) and mixing. Phosphorylated MBP was collected on PVDF membranes in 96 well filter plates and quantitated by scintillation counting.

Row | Structure (SMILES) | IC50
1 | COc1ccc(-c2nnc3c4ccccc4c(NCC(C)(C)CN(C)C)nn23)cc1 [Compound 2, N′-[3-(4-Methoxy-phenyl)-[1,2,4]triazolo[4,3-α]phthalazin-6-yl)-2,2,N,N-tetramethyl-propane-1,3-diamine] | > 40 µM
2 | CN(C)CC(C)(C)CNc1nn2c(-c3ccccc3)nnc2c2ccccc12 [Compound 1, 2,2,N,N-tetramethyl-N-(3-phenyl-[1,2,4]triazolo[3,4-α]phthalazin-6-yl)-propane-1,3-diamine] | > 40 µM
